According to patent publication US5089623A, “Certain imidate insecticides” (Imperial Chemical Industries Plc, priority 1990, dated 1992):

Experiments:
Format in all cases: in vivo
[1] = system: Housefly [Musca domestica]; test: Housefly insecticidal test (HF); settings: per 25 female houseflies, 48 hours
[2] = system: Tobacco Budworm [Heliothis virescens (Fabricius)] eggs; test: Tobacco budworm egg test (TBW-E); settings: percent in solution
[3] = system: Cabbage Looper [Trichoplusia ni (Hubner)]; test: Cabbage looper test (CL); settings: second-instar larvae, 3-5 days, percent in solution
[4] = system: Maize weevil [Sitophilus Zeamais (Motschulsky)]; test: Maize weevil test (MW); settings: adult weevils, treated corn seeds, 48 hours, percent in solution
Protocol: The compounds in Tables 1 and 2 above were tested for insecticidal activity using the following testing procedures. LC50 values, based on the results of these tests and calculated according to dosage-mortality curves, are expressed in Table 3.
Maize weevil [Sitophilus Zeamais (Motschulsky)]
Test compounds were diluted in a 50:50 acetone:water solution. Four corn seeds [Zea mays (L.)] which had been immersed in test solutions for 2-3 seconds and allowed to dry were placed in containers together with 10 adult weevils. The containers were covered and kept at a temperature of about 25° C. Mortality was recorded after 48 hours. Test concentrations ranged from 0.01% down to that at which 50% mortalilty occurred. The LC50 values are expressed below in Table 3 under the heading "MW" in terms of percent of the test compound in solution.

| SMILES | LC50 HF [1] [µg] | LC50 TBW E [2] [%] | LC50 CL [3] [%] | LC50 MW [4] [%] |
| --- | --- | --- | --- | --- |
| Clc1ccc(N=C(OCc2cccc(Oc3ccccc3)c2)C2CCC2)cc1 [Compound 8] | 50 | > 0.01 | 0.01 | > 0.01 |
| CC(C)(C)C(=Nc1cccc(C(F)(F)F)c1)OCc1cccc(Oc2ccccc2)c1 [Compound 88] | > 100 | > 0.1 | 0.018 | > 0.01 |
| Fc1ccc(Oc2cccc(COC(=Nc3ccc(F)c(Cl)c3)C3CC3)c2)cc1 [Compound 116] | 15 | 0.05 | 0.00025 | > 0.01 |
| CCc1ccc(N=C(OCc2cccc(Oc3ccccc3)c2)C(C)(C)C)cc1 [Compound 163] | > 100 | > 0.1 | 0.004 | > 0.01 |
| CC(C)C(=Nc1ccc(F)c(Cl)c1)OCc1cccc(Oc2cccc(Cl)c2)c1 [Compound 203] | 43 | 0.06 | 0.0025 | > 0.01 |
| CC(C)C(=Nc1cc(F)c(Cl)cc1Cl)OCc1ccc(F)c(Oc2ccc(F)cc2)c1 [Compound 292] | 41 | 0.05 | 0.00075 | > 0.01 |
| Fc1ccc(Oc2cccc(COC(=Nc3cccc(C(F)(F)F)c3)C3CC3)c2)cc1 [Compound 294] | > 100 | > 0.1 | 0.017 | > 0.01 |
| CC(C)C(=Nc1ccc(F)c(Br)c1)OCc1ccc(F)c(Oc2ccccc2)c1 [Compound 299] | 8 | 0.017 | 0.0005 | > 0.01 |
| CC(C)C(=Nc1ccc(C(C)(C)C)cc1)OCc1ccc(F)c(Oc2ccc(Cl)cc2)c1 [Compound 301] | > 100 | > 0.1 | 0.008 | > 0.01 |
| CC(C)C(=Nc1cccc([N+](=O)[O-])c1)OCc1cccc(Oc2ccccc2)c1 [Compound 302] | 15 | > 0.1 | 0.003 | > 0.01 |
| CC(C)C(=Nc1c(F)c(F)cc(F)c1F)OCc1cccc(Oc2ccc(F)cc2)c1 [Compound 304] | > 100 | > 0.1 | 0.0024 | > 0.01 |
| CC(Br)C(=Nc1ccc2c(c1)OCO2)OCc1cccc(Oc2ccccc2)c1 (stereo not drawn) [Compound 306] | > 100 | 0.1 | 0.005 | > 0.01 |
| CC(C)C(=Nc1ccc([N+](=O)[O-])c(C(F)(F)F)c1)OCc1cccc(Oc2ccccc2)c1 [Compound 307] | > 100 | 0.08 | 0.002 | > 0.01 |
| CC(C)C(=Nc1ccc(F)c(I)c1)OCc1ccc(F)c(Oc2ccccc2)c1 [Compound 334] | 9 | 0.013 | 0.0007 | > 0.01 |
| CC(C)c1ccc(N=C(OCc2cccc(Oc3ccccc3)c2)C2CCC2)cc1 [Compound 339] | > 100 | > 0.1 | 0.017 | > 0.01 |
| CC(C)C(=Nc1ccc(Cl)c(C(F)(F)F)c1)OCc1ccc(F)c(Oc2ccc(F)cc2)c1 [Compound 340] | 34 | 0.04 | 0.00037 | 0.0069 |
| CC(C)C(=Nc1cccc(Cl)c1)OCc1ccc(F)c(Oc2ccc(F)cc2)c1 [Compound 341] | 4 | 0.023 | 0.0005 | > 0.01 |
| CC(C)C(=Nc1cccc(F)c1)OCc1ccc(F)c(Oc2ccc(F)cc2)c1 [Compound 342] | 4.1 | 0.04 | 0.0008 | > 0.01 |
| Cc1ccc(Oc2cccc(COC(=Nc3ccc(C(C)(C)C)cc3)C(C)C)c2)cc1 [Compound 344] | > 100 | > 0.1 | 0.024 | > 0.01 |
| COc1ccc(Oc2cccc(COC(=Nc3ccc(C(C)(C)C)cc3)C(C)C)c2)cc1 [Compound 345] | > 100 | > 0.1 | 0.018 | > 0.01 |
| CCOc1ccc(N=C(OCc2cccc(Oc3ccccc3)c2)C(C)C)cc1Cl [Compound 368] | < 100 | 0.04 | 0.002 | > 0.01 |
| CCOc1ccc(N=C(OCc2cccc(Oc3ccccc3)c2)C(C)C)cc1 [Compound 371] | < 100 | > 0.1 | 0.0022 | > 0.01 |

| SMILES | LC50 HF [1] [µg] | LC50 TBW E [2] [%] | LC50 CL [3] [%] | LC50 MW [4] [%] |
| --- | --- | --- | --- | --- |
| CCOc1ccc(N=C(OCc2ccc(F)c(Oc3ccc(Cl)cc3)c2)C(C)C)cc1 [Compound 372] | > 100 | > 0.1 | > 0.1 | > 0.01 |
| CCOc1ccc(N=C(OCc2ccc(F)c(Oc3ccccc3)c2)C(C)C)cc1 [Compound 373] | < 100 | > 0.1 | > 0.1 | > 0.01 |
| CC(C)C(=Nc1ccc(I)c(Cl)c1)OCc1cccc(Oc2ccc(F)cc2)c1 [Compound 374] | < 100 | 0.02 | 0.00058 | > 0.01 |
| CC(C)C(=Nc1ccc(F)c(Br)c1)OCc1ccc(F)c(Oc2ccc(Cl)cc2)c1 [Compound 379] | < 100 | 0.02 | 0.00075 | > 0.01 |
| CC(C)C(=Nc1ccc(Br)c(Br)c1)OCc1ccc(F)c(Oc2ccc(F)cc2)c1 [Compound 383] | < 100 | 0.038 | 0.00029 | > 0.01 |
| CC(C)C(=Nc1ccc(Br)c(Br)c1)OCc1ccc(F)c(Oc2ccccc2)c1 [Compound 384] | < 100 | 0.025 | > 0.1 | > 0.01 |
| CC(C)C(=Nc1ccc(I)c(Cl)c1)OCc1ccc(F)c(Oc2ccc(F)cc2)c1 [Compound 385] | < 100 | > 0.1 | > 0.1 | > 0.01 |
| CC(C)C(=Nc1cccc(Br)c1)OCc1ccc(F)c(Oc2ccc(Cl)cc2)c1 [Compound 386] | < 100 | > 0.1 | 0.0012 | > 0.01 |
| CC(C)C(=Nc1ccc(Cl)c(C(F)(F)F)c1)OCc1ccc(F)c(Oc2ccccc2)c1 [Compound 388] | < 100 | > 0.1 | 0.0012 | > 0.01 |
| CC(C)C(=Nc1cccc(I)c1)OCc1cccc(Oc2ccc(Cl)cc2)c1 [Compound 389] | < 100 | > 0.1 | 0.00069 | > 0.01 |
| CC(C)C(=Nc1cccc(Cl)c1)OCc1ccc(F)c(Oc2ccc(Cl)cc2)c1 [Compound 390] | < 100 | 0.045 | 0.0021 | > 0.01 |
| CC(C)C(=Nc1ccc(C#N)cc1)OCc1ccc(F)c(Oc2ccc(Cl)cc2)c1 [Compound 392] | < 100 | 0.039 | 0.00034 | > 0.01 |
| CC(C)C(=Nc1ccc(C#N)cc1)OCc1cccc(Oc2ccc(Cl)cc2)c1 [Compound 393] | < 100 | > 0.1 | 0.00037 | > 0.01 |
| CC(C)C(=Nc1ccc(C#N)cc1)OCc1ccc(F)c(Oc2ccc(F)cc2)c1 [Compound 394] | < 100 | 0.05 | 0.00025 | > 0.01 |
| Cc1ccc(Oc2cccc(COC(=Nc3ccc(F)c(Cl)c3)C(C)C)n2)cc1 [Compound 494] | 34 | > 0.1 | 0.003 | – |
| Cc1ccc(Oc2cccc(COC(=Nc3cccc(C(F)(F)F)c3)C(C)C)n2)cc1 [Compound 495] | > 100 | 0.1 | 0.012 | – |
| CC(C)C(=Nc1ccc(C(C)(C)C)cc1)OCc1cccc(Oc2ccccc2)n1 [Compound 496] | > 100 | > 0.1 | 0.006 | – |
| CC(C)C(=Nc1ccc(C(C)(C)C)cc1)OCc1cccc(Oc2ccc(Cl)cc2)n1 [Compound 497] | > 100 | > 0.1 | 0.0075 | – |
| CC(C)C(=Nc1ccc(F)c(Cl)c1)OC(C)c1cccc(Oc2ccccc2)n1 (stereo not drawn) [Compound 498] | 49 | > 0.1 | 0.002 | – |
| CC(C)C(=Nc1cccc(C(F)(F)F)c1)OC(C)c1cccc(Oc2ccccc2)n1 (stereo not drawn) [Compound 499] | 63 | > 0.1 | 0.0024 | – |
| COCc1c(F)c(F)c(COC(=Nc2ccc3c(c2)OCO3)C(C)C)c(F)c1F [Compound 501] | 20 | > 0.1 | 0.00045 | – |
